Measurements published in patent publication US12319913B2, “5-halouracil-modified microRNAs and their use in the treatment of cancer” (The Research Foundation for The State University of New York, priority 2018, dated 2025).
[5FU] = 5-fluorouracil base replacing uracil

Experiments:
[1] = test system: Hs766T pancreatic cancer cells; test: Cell proliferation, Hs766T; assay type: cell-based, human; settings: compared to negative controls
Description: (§1) For transfections, 1×10^5 cells were plated in six-well plates and transfected with 100 nM of control non-specific miRNA (Thermo Fischer), a modified microRNA, or exogenous native microRNA after 24 hours using Oligofectamine (Thermo Fischer) following the manufacturer's protocols. For reagent free transfection, cells were plated in 6 well plates at (1×10^5) cells per well. Twenty-four hours later 100 pmol miRNA (Control, miR-15a, Mimic-1) were diluted in Optimem (Thermo Fischer) and added to the plate. Media was changed after 24 hours. Media was supplemented with 10% fetal bovine serum (Thermo Fischer). Briefly, cells were cultured in growth media (DMEM/F12 supplemented with B27, 10 ng/mL bFGF, and 20 ng/mL EGF (Life Technologies) in ultra-low attachment flasks) for up to 6 days. The spheroid cells were maintained by collection through gentle centrifugation, dissociation to single cells and replating.
(§2) Cell proliferation assay: Twenty-four hours after transfection, cells were seeded in 96-well plates at a density of 2000 cells per well. The cell proliferation assay was performed on days 1 to 5 by incubating 10 μl WST-1 (Roche Applied Science, Mannheim, Germany) in the culture medium for 1 h and reading the absorbance at 450 and 630 nm. The cell proliferation rate was calculated by subtracting the […]. Experiments for the cell proliferation assay were performed at least three times. The O.D. was calculated by subtracting the absorbance at 630 nm from that at 450 nm. Proliferation experiments were performed three times.

REH leukemia cells = test: Cell cycle analysis, REH leukemia cells; assay type: cell-based, human; settings: 50 nM, compared to the control
Description: (§3) Cell cycle analysis: Twenty-four hours after transfection, cells were harvested and resuspended at 0.5 to 1×10^6 cells/mL in modified Krishan's buffer supplemented with 0.02 mg/mL RNase H and 0.05 mg/mL propidium iodide. Stained cells were detected by flow cytometry and results were analyzed with Modfit LT™ software. The experiments for cell cycle analysis were performed at least three times.

A549 lung cancer cells = test: Cell proliferation, A549; assay type: cell-based, human; settings: A549, compared to negative controls
Description: as §1, §2

[2] = test system: acute lymphocytic leukemia cell line (REH); test: Cell proliferation, REH; assay type: cell-based, human; settings: 50 nM, 25 nM, 12.5 nM, 6.25 nM, and 3.125 nM
[3] = test system: acute lymphocytic leukemia cell line (REH); test: Cell proliferation, REH; assay type: cell-based, human; settings: compared to negative controls
Description: as §1, §2

[4] = test system: SKBR3 breast cancer cells; test: Cell proliferation, SKBR3; assay type: cell-based, human; settings: SKBR3, compared to negative controls
Description: as §1, §2

[5] = test system: Panc-1 pancreatic cancer cells; test: Cell proliferation, Panc-1; assay type: cell-based, human; settings: PANC-1; 50 nM, 25 nM, 12.5 nM, 6.25 nM, and 3.125 nM
Description: as §1, with “For transfections, 1×10^5 cells were plated in six-well plates and transfected with 100 nM of control non-specific miRNA (Thermo Fischer), a modified microRNA, or exogenous native microRNA after 24 hours using Oligofectamine (Thermo Fischer) following the manufacturer's protocols.” left out
as §2

[6] = test system: AsPC-1 pancreatic cancer cells; test: Cell proliferation, AsPC-1; assay type: cell-based, human; settings: APSC-1; 50 nM, 25 nM, 12.5 nM, 6.25 nM, and 3.125 nM
Description: as §1, with “For transfections, 1×10^5 cells were plated in six-well plates and transfected with 100 nM of control non-specific miRNA (Thermo Fischer), a modified microRNA, or exogenous native microRNA after 24 hours using Oligofectamine (Thermo Fischer) following the manufacturer's protocols.” left out
as §2

AGS stomach cancer cells = test: Cell proliferation, AGS; assay type: cell-based, human; settings: compared to negative controls
Description: as §1, §2

[7] = test system: MDA-MB-231 breast cancer cells; test: Cell cycle analysis, MDA-MB-231 breast cancer cells; assay type: cell-based, human; settings: compared to native exogenous microRNAs or NC
Description: as §3

fibronectin = test: Western blot of miR-200b target in breast cancer cells; assay type: cell-based, human; settings: compared to exogenous native miR-200b and negative control
Description: (§4) Western immunoblot analysis: Forty-eight hours after transfection, equal amounts of protein (15 μg) extracted from cells lysed in RIPA buffer with protease inhibitor (Sigma) and were separated on 10%-12% sodium dodecyl sulfate-polyacrylamide gels using standard procedures. The primary antibodies used for the analysis were rabbit anti-YAP1 monoclonal antibody (1:10000) (Cell Signaling Technologies), anti-DLCK1 (1:500) (Abcam), anti-BCL2 (1:500) (NeoMarkers), anti-MDC1 (1:500), anti-SUZ12 (1:500), anti-pChk-1 (1:500), anti beta-actin (1:500), anti-BMI-1 (1:10000) (Cell Signaling Technologies), mouse anti-human TS antibody (1:500), anti-α-tubulin (1:50000) (Santa Cruz Biotech Inc.), anti-GAPDH (1:100000) (Santa Cruz Biotech Inc.), anti-E2F3 (1:500) (Santa Cruz Biotech Inc.), Horseradish peroxidase-conjugated antibodies against mouse or rabbit (1:5000, Santa Cruz Biotech Inc.) were used as the secondary antibodies. Protein bands were visualized with autoradiography film using SuperSignal West Pico Chemiluminescent Substrate (Thermo Fischer). Western blot density was quantified using Image J software.

TS-FdUMP = target: T1, TS-FdUMP (Homo sapiens, UniProt P04818); test: Western blot of TS / TS-FdUMP in MDA-MB-231 cells; assay type: cell-based; settings: MDA-MB-231 cell line
T1 construct: endogenous in cells
Description: as §4

[8] = test system: MDA-MB-231 triple negative breast cancer cells; test: MTT cell proliferation, MDA-MB-231, with or without oligofectamine; assay type: cell-based, human; settings: for cell proliferation without delivery vehicle (no oligofectamine): MDA-MB-231, MTT assay; for cell proliferation in the presence of oligofectamine: MDA-MB-231, MTT assay for 6 days, vs miR-NC
Description: as §1
Furthermore, to test whether or not the modified microRNAs of the present disclosure can be delivered directly to cells and taken up by the cancer cells without the use of transfer agents or vehicles (i.e., oligofectamine), MDA-MB-231 triple negative breast cancer cells were transfected with miR-NC (negative control), exogenous unmodified miR-200b or miR-489, 5-FU-miR-200b or modified miR-489 by using oligofectamine or without delivery vehicle. As shown in FIGS. 17A-17B and 20A, the effects of expression of the exemplary modified miRs tested on breast cancer cell proliferation were monitored by MTT assay for 6 days upon transfection or incubation.

MDC1 and SUZ12 = test: Western blot of MDC1 and SUZ12 in triple negative breast cancer cells; assay type: cell-based, human; settings: triple negative breast cancer cells, western blot
Description: as §4

HCT-116 cells = test: Cell cycle analysis by flow cytometry, colon cancer cells; assay type: cell-based, human; settings: colon cancer cells, compared to the control
Description: as §3

colon cancer stem cells = test: Anchorage-independent colony formation (soft agar); assay type: cell-based, human; settings: soft agar / Matrigel matrix
Description: Anchorage-independent proliferation was studied to determine cancer cell colony forming ability. Cancer cells were trypsinized and counted and a total of 1×10^5 cells per well were transfected in 6-well plates with 25 nM modified microRNA or native miRs or a negative control miRNA with oligofectamine, and 6 hours after transfection, cells were recounted. A total of 20,000 cells in 0.35% agar (Bacto Agar; Becton Dickinson) were layered on top of 1 mL of a solidified 0.6% agar layer in a 35-mm dish. Growth media with B27, 10 ng/mL bFGF, and 20 ng/mL EGF were included in both layers. After 2 weeks of incubation, colonies more than […] in diameter were counted.

[9] = test system: YAP1, BMI1, DCLK1 and BCL2; test: Western blot of miR-15a targets in HCT-116 colon cancer stem cells; assay type: cell-based, human; settings: three days following transfection
Description: as §4, with “[…],” for “Forty-eight hours after transfection,”, “software. […]” for “software.”

[10] = test system: HCT116 colon cancer cells; test: WST-1 cell proliferation assay, HCT116; assay type: cell-based, human; settings: HCT-116, WST-1, six days after transfection
Description: as §1, with “1×10^5 cells were plated in six-well plates and transfected with 100 nM of control non-specific miRNA (Thermo Fischer), a modified microRNA, or exogenous native microRNA after 24 hours using Oligofectamine” left out
as §2

T1 sequence (P04818 2-313 limits assumed): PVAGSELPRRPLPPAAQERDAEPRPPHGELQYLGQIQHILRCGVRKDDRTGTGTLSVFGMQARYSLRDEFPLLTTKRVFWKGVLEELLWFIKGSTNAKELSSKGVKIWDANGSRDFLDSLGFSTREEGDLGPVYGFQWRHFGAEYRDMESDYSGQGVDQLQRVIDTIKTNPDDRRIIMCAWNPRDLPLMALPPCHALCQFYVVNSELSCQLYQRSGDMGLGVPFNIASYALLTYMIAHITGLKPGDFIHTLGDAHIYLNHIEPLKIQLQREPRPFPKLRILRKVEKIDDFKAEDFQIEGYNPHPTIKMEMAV

For “GU^FCCAGU^FU^FU^FU^FCCCAGGAAU^FCCCU^F (GUCCAGUUUUCCCAGGAAUCCCU; RNA, [5FU] at 2, 7, 8, 9, 10, 19, 23, backbone not given here) [modified miR-145]”, the “pancreatic cancer cell proliferation” value [1] was “inhibited”, the G1/S ratio (REH leukemia cells) was “significant fold increase in the G1/S ratio” and the “lung cancer cell proliferation” value (A549 lung cancer cells) was “inhibited”. For the same substance, the “leukemia cancer cell proliferation, dose dependence” value [2] was “inhibited in a dose dependent manner”, the “leukemia cancer cell proliferation” value [3] was “inhibited” and the “breast cancer cell proliferation” value [4] was “inhibited”. For the same substance, the “cell proliferation, dose dependence” value [5] was “inhibited in a dose dependent manner”, the “cell proliferation, dose dependence” value [6] was “inhibited in a dose dependent manner” and the “gastric cancer cell proliferation” value (AGS stomach cancer cells) was “inhibited”.
With “U^FAAU^FACU^FGCCU^FGGU^FAAU^FGAU^FGA (UAAUACUGCCUGGUAAUGAUGA; RNA, [5FU] at 1, 4, 7, 11, 14, 17, 20, backbone not given here) [modified miR-200b, miR-200b in which all (7) U bases are replaced by 5-fluorouracil]” the “pancreatic cancer cell proliferation” value [1] was “inhibited”, the “lung cancer cell proliferation” value (A549 lung cancer cells) was “inhibited” and the “leukemia cancer cell proliferation, dose dependence” value [2] was “inhibited in a dose dependent manner”. The “sub G1 and G1/S ratio” value [7] was “significantly increase”, the “fibronectin (miR-200b target gene) expression” value (fibronectin) was “reduction of fibronectin” and the “leukemia cancer cell proliferation” value [3] was “inhibited”. For the same substance, the “breast cancer cell proliferation” value [4] was “inhibited”, the “cell proliferation, dose dependence” value [5] was “inhibited in a dose dependent manner” and the “cell proliferation, dose dependence” value [6] was “inhibited in a dose dependent manner”. The TS-FdUMP break down (TS-FdUMP) was “breaks down TS-FdUMP”, the “cell proliferation without delivery vehicle (no oligofectamine)” value [8] was “effectively reduced cell proliferation” and the “cell proliferation in the presence of oligofectamine” value [8] was “dramatically reduced the cell growth from day 3”. The “gastric cancer cell proliferation” value (AGS stomach cancer cells) was “inhibited”.
For “CGACGGCAUAUACACUACAGUG (chemistry not fully specified; listed as Homo sapiens) [native miR-489, 31]”, the “MDC1 and SUZ12 protein expression” value (MDC1 and SUZ12) was “reduction of MDC1 and SUZ12 protein expression”, the “cell proliferation without delivery vehicle (no oligofectamine)” value [8] was “did not inhibit cell growth” and the “cell proliferation in the presence of oligofectamine” value [8] was “reduced the rate of cell proliferation”. The “cancer cell proliferation, native miR without 5-FU chemotherapy” value ([8]; MDA-MB-231, MTT, compared with 5 μM 5-FU alone) was “reduces cancer cell proliferation in a manner similar to that exhibited when cells are treated with 5-FU alone”.
“U^FGAGGU^FAGU^FAGGU^FU^FGU^FAU^FAGU^FU^F [modified miR-let-7]” was tested, and the “pancreatic cancer cell proliferation” value [1] was “inhibited”, the G1/S ratio (REH leukemia cells) was “significant fold increase in the G1/S ratio” and the “lung cancer cell proliferation” value (A549 lung cancer cells) was “inhibited”. For the same substance, the “leukemia cancer cell proliferation, dose dependence” value [2] was “inhibited in a dose dependent manner”, the “leukemia cancer cell proliferation” value [3] was “inhibited” and the “breast cancer cell proliferation” value [4] was “inhibited”. For the same substance, the “cell proliferation, dose dependence” value [5] was “inhibited in a dose dependent manner”, the “cell proliferation, dose dependence” value [6] was “inhibited in a dose dependent manner” and the “gastric cancer cell proliferation” value (AGS stomach cancer cells) was “inhibited”.
With “UAGCAGCACAUAAUGGUUUGUG (RNA, backbone not given here; listed as Homo sapiens) [unmodified miR-15a, reference compound]” the “increase in the G1/S ratio” value (HCT-116 cells) was “about 3 fold”, the “colony / sphere formation” value (colon cancer stem cells) was “very few colonies” and the “protein levels of YAP1, BMI1, DCLK1 and BCL2” value [9] was “reduced”. For the same substance, the “decrease of cell proliferation compared to control” value [10] was 53%.
